In patent US20260209247A1, “Substituted Tricyclic Compounds” (Lupin Limited, priority 2019, published 2026):

How the values were obtained:
[1] = biological target: T1, protein-protein interaction between hSOS1 and hKRASG12C (Homo sapiens, UniProt Q07889); experiment: KRAS-SOS1 interaction assay (HTRF); type: binding; conditions: GST-hSOS1 564-1049aa, HIS-hKRASG12C, read-out: KRAS-SOS1 Interaction inhibition IC50
T1 construct: GST-hSOS1, 564-1049aa expressed and purified in-house
T1 sequence (Q07889 564-1049): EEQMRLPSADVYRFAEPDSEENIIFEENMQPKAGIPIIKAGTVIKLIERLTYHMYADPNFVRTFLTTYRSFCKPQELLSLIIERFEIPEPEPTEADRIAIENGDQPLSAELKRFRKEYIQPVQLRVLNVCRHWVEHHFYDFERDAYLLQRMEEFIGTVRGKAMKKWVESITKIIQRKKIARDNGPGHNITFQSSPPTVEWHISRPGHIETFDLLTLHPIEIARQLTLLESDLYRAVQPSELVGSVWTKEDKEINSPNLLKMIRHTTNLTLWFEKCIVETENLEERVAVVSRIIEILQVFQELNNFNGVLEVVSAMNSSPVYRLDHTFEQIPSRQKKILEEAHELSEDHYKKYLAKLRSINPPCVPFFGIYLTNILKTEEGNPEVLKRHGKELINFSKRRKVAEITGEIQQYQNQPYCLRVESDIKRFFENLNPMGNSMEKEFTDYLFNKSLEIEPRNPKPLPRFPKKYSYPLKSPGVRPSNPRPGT
Protocol: Interaction assay was conducted to evaluate the ability of the compounds to disrupt the protein-protein interactions between hSOS1 and hKRASG12C. Inhibitory effect of compounds on GST-hSOS1, 564-1049aa expressed and purified in-house and HIS-hKRASG12C (R06-32DH, SignalChem) interaction was assessed using HTRF detection technology in biochemical assay. Compounds were pre-incubated with 10-50 nM working solution of hSOS1 per well of a 384 well plate (Perkin Elmer, Cat #6007290) for 10 min at 20° C. in the assay buffer containing 5 mM HEPES, pH 7.4, 150 mM NaCl, 10 mM EDTA, 1 mM DTT, 0.05% BSA fraction V and 0.0025% Igepal. Reaction was initiated by adding 100-300 nM working solution of hKRASG12C in assay buffer. Total assay volume was 15 μL. Reaction was continued for 30-60 min at 20° C. Then detection solution containing MAb Anti-GST-d2 (#61GSTDLA, Cisbio BioAssays) and MAb Anti-HIS-Tb (#61HISTLA, Cisbio BioAssays), all prepared in HTRF detection buffer (#61DB10RDF, Cisbio BioAssays) was added and further incubated for 30-60 min at 20° C. HTRF signal was recorded in PHERAStar microplate reader. Ratio of signal obtained at 665 nm and 620 nm was used to compute the percent inhibition of compound utilizing the following formula: […]

[2] = biological target: T2, nucleotide exchange on hKRASG12C mediated by hSOS1 (Homo sapiens, UniProt Q07889); experiment: Guanine nucleotide exchange assay (GNEA, HTRF); type: biochemical; conditions: HIS-hSOS1 564-1049aa mediated GTP loading onto GST-hKRASG12C 1-169aa, read-out: Guanine nucleotide exchange inhibition IC50
T2 construct: HIS-hSOS1, 564-1049aa mediated GTP loading onto GST-hKRASG12C; His (N); made in house
T2 sequence (Q07889 564-1049): T1 sequence (Q07889 564-1049)
Protocol: Example-154: Guanine nucleotide exchange assay (GNEA) GNEA assay was conducted to evaluate the effects of compounds on the nucleotide exchange on hKRASG12C mediated by hSOS1. Inhibitory effect of compounds on HIS-hSOS1, 564-1049aa mediated GTP loading onto GST-hKRASG12C, 1-169aa both expressed and purified in-house was assessed using HTRF detection technology in biochemical assay. Compounds were pre-incubated with hSOS1 working solution containing 10-50 nM hSOS1 and 200 nM EDA-GTP-DY-647P1 (Custom manufactured, Jena Biosciences) per well of a 384 well plate (Perkin Elmer, Cat #6007290) for 10 min at 20° C. in the assay buffer containing 10 mM HEPES, pH 7.4, 150 mM NaCl, 5 mM MgCl2, 1 mM DTT, 0.05% BSA fraction V and 0.0025% Igepal. Reaction was initiated by adding working solution of hKRASG12C containing 25-125 nM hKRASG12C and MAb Anti-GST-Tb (#61GSTTLA, Cisbio BioAssays) in assay buffer. Total assay volume was 15 μL. Reaction was continued for 30-60 min at 20° C. HTRF signal was recorded in PHERAStar microplate reader. Ratio of signal obtained at 665 nm and 620 nm was used to compute the percent inhibition of compound as follows.

[3] = test system: pERK after EGF stimulation in DLD1 cells; experiment: ERK phosphorylation assay (alphascreen pERK); type: cell-based; conditions: Homo sapiens, DLD-1, 2 h compound, 200 ng/ml hEGF for 5 minutes, read-out: ERK phosphorylation inhibition IC50
Protocol: Compounds were tested for their ability to inhibit pERK after EGF stimulation in DLD1 cells. Cells were seeded at 0.2 million cells per well in 96 well cell binding tissue culture plate in 100 μL complete media and were allowed to settle overnight (16 to 20 h). On the following day, cells were treated with various concentrations of test compounds for 2 h followed by stimulation with 200 ng/ml hEGF (diluted in PBS) for 5 minutes. Cells were then washed once with PBS and lysed in freshly prepared lysis buffer (provided with alphascreen surefire ERK1/2 p-T202/Y204 assay kit, cat no: TGRESB10K, Perkin Elmer). Lysis was carried out in plate shaker for 10-15 mins. Lysate was transferred to […] white opti-plate (Perkin Elmer) and alphascreen for pERK was carried out as per manufacturer's instructions. Plate was read after 2 h incubation in plate shaker at […] 300 RPM, 25-28° C. The difference between the unstimulated and stimulated Vehicle control is considered as 100% ERK phosphorylation, and % inhibition of compounds is calculated accordingly.

## COC1(C)C(=O)N(C)c2cc3nc(C)nc(N[C@H](C)c4cccc(C(F)(F)C(C)(C)O)c4F)c3cc21 (mixture of isomers) [Compound 96, (R&S)-4-(((R)-1-(3-(1,1-difluoro-2-hydroxy-2-methylpropyl)-2-fluorophenyl)ethyl)amino)-6-methoxy-2,6,8-trimethyl-6,8-dihydro-7H-pyrrolo[3,2-g]quinazolin-7-one]
[1]
  IC50: 1 to 10 nM
[2]
  IC50: 1 to 30 nM
[3]
  IC50: 1 to 200 nM

## Cc1nc(N[C@H](C)c2cc(N)cc(C(F)(F)F)c2)c2cc3c(cc2n1)OCCN3C [Compound 10, (R)—N-(1-(3-amino-5-(trifluoromethyl)phenyl)ethyl)-2,6-dimethyl-7,8-dihydro-6H-[1,4]oxazino[3,2-g]quinazolin-4-amine]
[1]
  IC50: 1 to 10 nM
[2]
  IC50: 31 to 130 nM

## Cc1nc(N[C@H](C)c2cccc(C(F)(F)C(C)(C)O)c2F)c2cc3c(cc2n1)OC(C)(C)C(N1CCOCC1)=N3 [Compound 26, (R)-1,1-Difluoro-1-(2-fluoro-3-(1-((2,8,8-trimethyl-7-morpholino-8H [1,4]oxazino[3,2-g]quinazolin-4-yl)amino)ethyl)phenyl)-2-methylpropan-2-ol]
[3]
  IC50: 201 to 500 nM

## Cc1nc(N[C@H](C)c2cccc(C(F)(F)C(C)(C)O)c2F)c2cc3c(cc2n1)OC(C)(C)C(=O)N3C [Compound 33, (R)-4-((1-(3-(1,1-Difluoro-2-hydroxy-2-methylpropyl)-2-fluorophenyl)ethyl)amino)-2,6,8,8-tetramethyl-6H-[1,4]oxazino[3,2-g]quinazolin-7(8H)-one]
[3]
  IC50: 1 to 200 nM

## Cc1nc(N[C@H](C)c2cccc(C(F)(F)C(C)(C)O)c2F)c2cc3c(cc2n1)n(C)c(=O)c(=O)n3C [Compound 40, (R)-4-((1-(3-(1,1-Difluoro-2-hydroxy-2-methylpropyl)-2-fluorophenyl)ethyl)amino)-2,6,9-trimethyl-6,9-dihydropyrazino[2,3-g]quinazoline-7,8-dione]
[3]
  IC50: 201 to 500 nM

## CCN1C(=O)C(C)(C)Oc2cc3nc(C)nc(N[C@H](C)c4cccc(C(F)(F)C(C)(C)O)c4F)c3cc21 [Compound 41, (R)-4-((1-(3-(1,1-difluoro-2-hydroxy-2-methylpropyl)-2-fluorophenyl)ethyl)amino)-6-ethyl-2,8,8-trimethyl-6H-[1,4]oxazino[3,2-g]quinazolin-7(8H)-one]
[3]
  IC50: 201 to 500 nM

## Cc1nc(N[C@H](C)c2cccc(C(F)(F)C(C)(C)O)c2)c2cc3c(cc2n1)OC(C)(C)C(=O)N3C [Compound 57, (R)-4-((1-(3-(1,1-difluoro-2-hydroxy-2-methylpropyl)phenyl)ethyl)amino)-2,6,8,8-tetramethyl-6H-[1,4]oxazino[3,2-g]quinazolin-7(8H)-one]
[3]
  IC50: 1 to 200 nM

## Cc1nc(N[C@H](C)c2cccc(C(F)(F)C(C)(C)O)c2F)c2cc3c(cc2n1)C(C)(C)C(=O)N3C1CC1 [Compound 65, (R)-6-cyclopropyl-4-((1-(3-(1,1-difluoro-2-hydroxy-2-methylpropyl)-2-fluorophenyl)ethyl)amino)-2,8,8-trimethyl-6,8-dihydro-7H-pyrrolo[2,3-g]quinazolin-7-one]
[3]
  IC50: 1 to 200 nM

## Cc1nc(N[C@H](C)c2cccc(C(F)(F)CO)c2F)c2cc3c(cc2n1)C(C)(C)C(=O)N3C [Compound 72, (R)-4-((1-(3-(1,1-difluoro-2-hydroxyethyl)-2-fluorophenyl)ethyl)amino)-2,6,8,8-tetramethyl-6,8-dihydro-7H-pyrrolo[2,3-g]quinazolin-7-one]
[1]
  IC50: 1 to 10 nM
[2]
  IC50: 1 to 30 nM

## Cc1nc(N[C@H](C)c2cccc(C(F)(F)C(C)(C)O)c2F)c2cc3c(cc2n1)C(C)(C)C(=O)N3C(C)C [Compound 78, (R)-4-((1-(3-(1,1-difluoro-2-hydroxy-2-methylpropyl)-2-fluorophenyl)ethyl)amino)-6-isopropyl-2,8,8-trimethyl-6H-pyrrolo[2,3-g]quinazolin-7(8H)-one]
[3]
  IC50: 1 to 200 nM

## Cc1nc(N[C@H](C)c2cccc(C(F)(F)C(C)(C)O)c2F)c2cc3c(cc2n1)C1(CC1)C(=O)N3C [Compound 79, (R)-4′-((1-(3-(1,1-difluoro-2-hydroxy-2-methylpropyl)-2-fluorophenyl)ethyl)amino)-2′,6′-dimethylspiro[cyclopropane-1,8′-pyrrolo[2,3-g]quinazolin]-7′(6′H)-one]
[3]
  IC50: 1 to 200 nM

## Cc1nc(N[C@H](C)c2cccc(C(F)(F)C(C)(C)O)c2F)c2cc3c(cc2n1)N(C)C(C)(C)N3C [Compound 108, (R)-1,1-difluoro-1-(2-fluoro-3-(1-((1,2,2,3,6-pentamethyl-2,3-dihydro-1H-imidazo[4,5-g]quinazolin-8-yl)amino)ethyl)phenyl)-2-methylpropan-2-ol]
[3]
  IC50: 201 to 500 nM

## Cc1nc(N[C@H](C)c2cccc(C(F)(F)C(C)(C)O)c2F)c2cc3c(cc2n1)oc(=O)n3C [Compound 111, (R)-8-((1-(3-(1,1-difluoro-2-hydroxy-2-methylpropyl)-2-fluorophenyl)ethyl)amino)-1,6-dimethyloxazolo[4,5-g]quinazolin-2(1H)-one]
[3]
  IC50: 201 to 500 nM

## Cc1nc(N[C@H](C)c2cccc(C(F)(F)C(C)(C)O)c2F)c2cc3c(cc2n1)CC(=O)N3C [Compound 113, (R)-4-((1-(3-(1,1-difluoro-2-hydroxy-2-methylpropyl)-2-fluorophenyl)ethyl)amino)-2,6-dimethyl-6,8-dihydro-7H-pyrrolo[2,3-g]quinazolin-7-one]
[1]
  IC50: 1 to 10 nM
[2]
  IC50: 31 to 130 nM

## Cc1nc(N[C@H](C)c2cccc(C(F)(F)C(C)(C)O)c2F)c2cc3c(cc2n1)C(=O)N(C)C3(C)C [Compound 114, (R)-4-((1-(3-(1,1-difluoro-2-hydroxy-2-methylpropyl)-2-fluorophenyl)ethyl)amino)-2,6,6,7-tetramethyl-6,7-dihydro-8H-pyrrolo[3,4-g]quinazolin-8-one]
[3]
  IC50: 1 to 200 nM

## Cc1nc(N[C@H](C)c2cccc(C(F)(F)C(C)(C)O)c2F)c2cc3c(cc2n1)C(F)(F)C(=O)N3C [Compound 117, (R)-4-((1-(3-(1,1-difluoro-2-hydroxy-2-methylpropyl)-2-fluorophenyl)ethyl)amino)-8,8-difluoro-2,6-dimethyl-6,8-dihydro-7H-pyrrolo[2,3-g]quinazolin-7-one]
[3]
  IC50: 201 to 500 nM
